In patent publication US8232402B2, “Quinolinone farnesyl transferase inhibitors for the treatment of synucleinopathies and other indications” (Link Medicine Corporation, priority 2008, dated 2012):

Legend:
[1] = target: recombinant farnesyl transferase (FTase) (Homo sapiens, UniProt P49354+P49356); experiment: In vitro farnesyl transferase assay (fluorescent dansyl-pentapeptide); type: biochemical; settings: in vitro and in vivo
Excerpt: These neuroblastoma cells can be differentiated into dopaminergic cells and are useful for assessing the pathogenesis of Parkinson's disease (PD). […] Similar findings were found in vivo. […] IC50 values for various inventive compounds have been determined in in vitro assays using recombinant farnesyl transferase and a dansylated pentapeptide substrate. For a description of the assay used, see Cassidy et al., Methods Enzymol. 250:30-43, 1995, which is incorporated herein by reference. […] The compounds were also found to inhibit the farnesylation of Ras in cells treated with the test compound. IC50 values in vivo range from about 0.5 nM to about 25 μM.
Compounds were analyzed for inhibition of farnesyl transferase (FTase) activity using an established fluorescent peptide-based assay (Pompliano et al 1992 J. Am. Chem. Soc. 114:7945; U.S. Pat. No. 5,525,479, issued Jun. 11, 1996; each of which is incorporated herein by reference). In summary, a dansyl-pentapeptide (dGCVLS) (SEQ ID NO: 8) was incubated at […] with […] farnesyl pyrophosphate (FPP) and 25-50 nM FTase in 50 mM Tris-HC1/12 mM MgC12/[…]/6 mM DTT/0.2% octyl-D- -glucopyranoside/pH 7.0 at room temperature while the increase in fluorescence of the peptide at Ex =340 nm , Em =485 nm upon farnesyl addition was monitored continuously by a spectrofluorometer. […]

α-synuclein inclusions = experiment: Inclusion histology in α-synuclein transgenic mice (α-synuclein and ubiquitin immunostaining, Campbell-Switzer); type: in vivo; settings: for α-synuclein-positive cells per mm^2 versus vehicle: cortex and hippocampus
Protocol: (§1) Farnesyl transferase inhibitors Zarnestra and OSI-754 were administered to mice of the α-synuclein transgenic line described in Masliah et al. (Masliah et al. “Dopaminergic loss and inclusion body formation in alpha-synuclein mice: implications for neurodegenerative disorders” Science 287(5456): 1265-69, 2000; incorporated herein by reference). Animals from this line have α-synuclein neuronal inclusions in the cortex, hippocampus, and the olfactory bulb (Masliah et al. “Dopaminergic loss and inclusion body formation in alpha-synuclein mice: implications for neurodegenerative disorders” Science 287(5456): 1265-69, 2000; incorporated herein by reference). Transgenic mice were orally administered either FTI in 20% cyclodextrin solution or the same volume of vehicle alone twice a day for 30 or 90 days. In some cases, non-transgenic mice also received vehicle twice a day for 30 to 90 days. At the end of treatment, mice were sacrificed, and the brains removed and hemisected. One hemisphere of each was fixed in 4% paraformaldehyde/PBS (pH 7.4), cryoperserved, then sectioned for histology. The other hemisphere was subdivided into four brain regions, including the cortex and hippocampus, that were homogenized and processed into cytoplasmic and membrane fractions.
Formation of α-synuclein inclusions in the cortex and hippocampus was probed by immunostaining with an antibody for human α-synuclein. Cells positive for human α-synuclein were quantified. […] These regions were also analyzed for ubiquitin-immunoreactive inclusions and by the Campbell Switzer method of silver staining. Ubiquitin is known to be a constituent of Lewy bodies and in the α-synculein inclusions found in the transgenic mouse line used in the study (Masliah et al. “Dopaminergic loss and inclusion body formation in alpha-synuclein mice: implications for neurodegenerative disorders” Science 287(5456): 1265-69, 2000; incorporated herein by reference). […] Campbell-Switzer staining is a general marker of Lewy Body type inclusions (Uchihara et al. “Silver stainings distinguish Lewy bodies and glial cytoplasmic inclusions: comparison between Gallyas-Braak and Campbell-Switzer methods” Acta Neuropathol (Berl) 110(3):255-60, 2005; incorporated herein by reference).
Formation of α-synuclein inclusions in the cortex and hippocampus was probed by immunostaining with an antibody for human α-synuclein. Cells positive for human α-synuclein were quantified.

α-synuclein = α-synuclein sandwich ELISA in brain fractions of α-synuclein transgenic mice; type: in vivo
Protocol: as §1
Total α-synuclein levels were analyzed by a sandwich ELISA assay similar to one previously described (El-Agnaf et al. “Detection of oligomeric forms of alpha-synuclein protein in human plasma as a potential biomarker for Parkinson's disease” FASEB J. 20(3):419-25, 2006; incorporated herein by reference). In the cortex of vehicle treated animals, α-synuclein protein levels in the α-synuclein transgenic line are greater than in non-transgenic mice in both cytoplasmic (FIG. 10) and membrane fractions (FIG. 11). Transgenic mice that received Zarnestra had lower α-synuclein protein levels than vehicle-treated transgenic mice and nearly the same as that detected in the non-transgenic group in both the cytoplasmic (FIG. 10) and membrane fractions (FIG. 11), which represent soluble and insoluble α-synuclein, respectively. Farnesylated UCH-L1 in the cortex is contained in the membrane fraction. The amount of UCH-L1 was determined by quantitative Western Blot.

farnesylated UCH-L1 = experiment: Farnesylated UCH-L1 in cortex membrane fraction of α-synuclein transgenic mice (quantitative Western blot); type: in vivo; settings: normalized to actin, 45 mg/kg twice a day, 30 days
Protocol: Farnesyl transferase inhibitors Zarnestra and OSI-754 were administered to mice of the α-synuclein transgenic line described in Masliah et al. (Masliah et al. “Dopaminergic loss and inclusion body formation in alpha-synuclein mice: implications for neurodegenerative disorders” Science 287(5456): 1265-69, 2000; incorporated herein by reference). Animals from this line have α-synuclein neuronal inclusions in the cortex, hippocampus, and the olfactory bulb (Masliah et al. “Dopaminergic loss and inclusion body formation in alpha-synuclein mice: implications for neurodegenerative disorders” Science 287(5456): 1265-69, 2000; incorporated herein by reference). […]
Total α-synuclein levels were analyzed by a sandwich ELISA assay similar to one previously described (El-Agnaf et al. “Detection of oligomeric forms of alpha-synuclein protein in human plasma as a potential biomarker for Parkinson's disease” FASEB J. 20(3):419-25, 2006; incorporated herein by reference). […] Transgenic mice that received Zarnestra had lower α-synuclein protein levels than vehicle-treated transgenic mice and nearly the same as that detected in the non-transgenic group in both the cytoplasmic (FIG. 10) and membrane fractions (FIG. 11), which represent soluble and insoluble α-synuclein, respectively. […] The amount of UCH-L1 was determined by quantitative Western Blot. […]

[2] = tested on: Neuronal Specific Nuclear Protein (NeuN); experiment: NeuN staining of cortex and hippocampus of α-synuclein transgenic mice; type: in vivo; settings: 90 days
[3] = α-synuclein transgenic mice, summary, dose not given

C#Cc1cccc(-c2cc(=O)n(C)c3ccc(C(O)(c4ccc(Cl)cc4)c4cncn4C)cc23)c1 (stereo not drawn) [LNK-754]
inhibition of the farnesylation of proteins and/or peptides [1]: inhibit the farnesylation of proteins and/or peptides in vitro and in vivo | inclusions versus vehicle (α-synuclein inclusions; 9 mg/kg twice a day, 90 days): fewer inclusions | inclusions versus vehicle (α-synuclein inclusions; 45 mg/kg twice a day, 90 days): fewer inclusions | α-synuclein-positive cells per mm^2 versus vehicle (α-synuclein inclusions; 9 mg/kg twice a day, 90 days): fewer α-synuclein-positive cells per mm^2 | α-synuclein-positive cells per mm^2 versus vehicle (α-synuclein inclusions; 45 mg/kg twice a day, 90 days): fewer α-synuclein-positive cells per mm^2 | inclusions versus vehicle (α-synuclein inclusions; [3]): fewer inclusions | levels of α-synuclein protein (ELISA) (α-synuclein; cortex and hippocampus, 9 mg/kg twice a day, 90 days): decreased levels of α-synuclein protein | levels of α-synuclein protein (ELISA) (α-synuclein; cortex and hippocampus, 45 mg/kg twice a day, 90 days): decreased levels of α-synuclein protein | levels of α-synuclein protein (ELISA) (α-synuclein; cortex, cytoplasmic and membrane fractions, 45 mg/kg twice a day, 30 days): decreased levels of α-synuclein protein | levels of α-synuclein in the cortex (α-synuclein; [3]): decrease levels of α-synuclein in the cortex | amount of farnesylated UCH-L1 (farnesylated UCH-L1): decreased the amount of farnesylated UCH-L1 | neuronal morphology or density (NeuN staining) [2]: did not affect neuronal morphology or density
